# Source: patent US5401725A, “Neovascularization inhibition by adenosine-5'-phosphosulfates” (Unitika Ltd., priority 1990, dated 1995)
# Legend:
# [1] = tested on: capillary vessel hyperplasia (experimental diabetic retinopathy); assay: therapeutic effect on experimental diabetic retinopathy; format: in vivo, rat (wister); conditions: for improving effect of pathologic state / beneficial effect on the pathologic state: I.P.; for improving effect of pathologic state: ten consecutive days; for beneficial effect on the pathologic state: ten days
# Experimental: First, streptozocin in an amount of 65 mg/kg was administered to a six-week aged male wister rat from its vena caudalis, and about three months thereafter, 3,3'-iminodipropionitrile was administered. Rats in which abnormal growth of capillary vessel (hyperplasia retinitis) was observed were screened out and were subjected to a medicament administration test with ten rats as a group.
# For comparison purposes, the effect of the medroxyprogesterone acetate (MPA), the conventional substance for inhibiting the neovascularization, was also tested by the same procedure as described above.
# [2] = tested on: neovascularization in the cornea; assay: inhibition of neovascularization in the cornea of rabbits (slow-releasing pellet); format: in vivo, rabbit; conditions: 100 μg and 1.0 mg in pellet with 10 μg prostaglandin E1 or 200 μg cuprous chloride; seven days
# [3] = toxicity in rats, parenteral administration; format: in vivo, rat; conditions: 500 to 3,500 mg/kg in 50% dimethylsulfoxide, I.V. or I.P.
# [4] = tested on: neovascularization of chorio-allantoic membranes; assay: neovascularization inhibition on chorio-allantoic membranes of fertilized fowl eggs; format: in vivo; conditions: for neovascularization inhibitory rate: two days; for neovascularization inhibitory effect (in words): commercially available
smiles,measurement,setting,value
"CC(=O)O[C@]1(C(C)=O)CC[C@H]2[C@@H]3C[C@H](C)C4=CC(=O)CC[C@]4(C)[C@H]3CC[C@@]21C [MPA, medroxyprogesterone acetate, reference compound]",improving effect of pathologic state,"[1]; Table 3, 1.5 mg/kg",-
same,improving effect of pathologic state,"[1]; Table 3, 3.0 mg/kg",+ (improving effects of pathologic state of 10 to 30%)
same,improving effect of pathologic state,"[1]; Table 3, 4.5 mg/kg",+ (improving effects of pathologic state of 10 to 30%)
same,improving effect of pathologic state,"[1]; Table 3, 6.0 mg/kg",++ (30 to 70%)
"Nc1ncnc2c1ncn2[C@@H]1O[C@H](COP(=O)(O)OS(=O)(=O)O)[C@@H](OP(=O)(O)O)[C@H]1O [PAPS, 3-phosphoadenosine 5'-phosphosulfate]",inhibition of neovascularization caused by prostaglandin E1 or cuprous chloride,[2],perfectly inhibit the neovascularization
same,intoxication or lethality,[3],no cases of intoxication or lethality
same,neovascularization inhibitory rate,"[4]; Table 1, commercially available (Sigma), dose 1 μg",+ (10 to 80% (+))
same,neovascularization inhibitory rate,"[4]; Table 1, commercially available (Sigma), dose 10 μg",++ (80 to 70% (++))
same,neovascularization inhibitory rate,"[4]; Table 1, commercially available (Sigma), dose 100 μg",++ (80 to 70% (++))
same,neovascularization inhibitory rate,"[4]; Table 1, commercially available (Sigma), dose 1,000 μg",+++ (70 to 100% (+++))
same,neovascularization inhibitory rate,"[4]; Table 2, enzyme-synthesized, dose 1 μg",+ (10 to 80% (+))
same,neovascularization inhibitory rate,"[4]; Table 2, enzyme-synthesized, dose 10 μg",++ (80 to 70% (++))
same,neovascularization inhibitory rate,"[4]; Table 2, enzyme-synthesized, dose 100 μg",++ (80 to 70% (++))
same,neovascularization inhibitory rate,"[4]; Table 2, enzyme-synthesized, dose 1,000 μg",+++ (70 to 100% (+++))
same,neovascularization inhibitory effect (in words),[4]; dose 10 μg,slight effect
same,neovascularization inhibitory effect (in words),[4]; dose at least 100 μg,perfect neovascularization inhibitory effect
same,neovascularization inhibition (in words),"[4]; enzyme-synthesized, dose range 1 to 1,000 μg",inhibited neovascularization in a dose-dependent manner
same,beneficial effect on the pathologic state,[1]; 1.5 mg/kg administration group,10%
same,beneficial effect on the pathologic state,[1]; 3.0 mg/kg group,70%
same,beneficial effect on the pathologic state,[1]; 6.0 mg/kg group,at least 80%
same,improving effect of pathologic state,"[1]; Table 3, 1.5 mg/kg",+ (improving effects of pathologic state of 10 to 30%)
same,improving effect of pathologic state,"[1]; Table 3, 3.0 mg/kg",++ (30 to 70%)
same,improving effect of pathologic state,"[1]; Table 3, 4.5 mg/kg",+++ (70 to 100%)
same,improving effect of pathologic state,"[1]; Table 3, 6.0 mg/kg",+++ (70 to 100%)
same,therapeutic effect as compared with MPA (in words),"[1]; any of the doses (1.5-6.0 mg/kg), compared with MPA",excellent therapeutic effect
